Test results as given in patent US9588122B2, “Methods of treating cancer sensitive to anti-EGFR therapy and modifying treatment using peroxiredoxin 6 biomarker” (The Board of Trustees of the Leland Stanford Junior …, priority 2013, dated 2017).

Columns and labels:
H1650 = test: Dose-dependent change in panel protein levels by western blot; conditions: 16 h
Description: (§1) Lysates were sonicated for 10 minutes, heated at 95° C. for 10 minutes, and centrifuged for 15 minutes at 20,000×g. The supernatant was cleared through a 0.22-micron filter and protein concentration was determined (BCA, BioRad, Hercules, Calif.). Lysates were subject to SDS-PAGE and subsequent immunoblot. For in vivo experiments, mouse tumor pieces from 5 mice were pooled and suspended in RAF buffer and homogenized with a high-speed blender. The homogenate was centrifuged for 5 min at 200×g. The supernatant was sonicated on ice for 2 minutes and centrifuged for 1 hr at 12,000×g. The supernatant (soluble fraction) was cleared through a 0.22-micron filter and processed as above. The pellet (insoluble fraction) was resuspended in RAF buffer with 2% SDS and DTT, heated at 95° C. and sonicated prior to processing.

H1975 = test: as above; conditions: 16 h
Description: as §1

A431-ZDR tumors = test: Gefitinib-resistant A431-ZDR xenograft model (Example 1); type: in vivo, mice; conditions: treated vs untreated controls
Description: Lysates were sonicated for 10 minutes, heated at 95° C. for 10 minutes, and centrifuged for 15 minutes at 20,000×g. The supernatant was cleared through a 0.22-micron filter and protein concentration was determined (BCA, BioRad, Hercules, Calif.). Lysates were subject to SDS-PAGE and subsequent immunoblot. For in vivo experiments, mouse tumor pieces from 5 mice were pooled and suspended in RAF buffer and homogenized with a high-speed blender. The homogenate was centrifuged for 5 min at 200×g. The supernatant was sonicated on ice for 2 minutes and centrifuged for 1 hr at 12,000×g. The supernatant (soluble fraction) was cleared through a 0.22-micron filter and processed as above. The pellet (insoluble fraction) was resuspended in RAF buffer with 2% SDS and DTT, heated at 95° C. and sonicated prior to processing. Serum from 5 mice was pooled and depleted using two MARS-3 columns (Agilent) connected in tandem with HPLC. The unbound fraction was concentrated to a final concentration of 2 mg/ml and processed as above.

A431 xenografts [1] = test: A431 subcutaneous xenograft study (Example 2)
A431 xenografts [2] = test: A431 xenograft model (Example 1); type: in vivo, mice
Source text: . […] . Control animals received vehicle alone (20 animals).

A431 = test: Dose-dependent change in panel protein levels by western blot; type: cell-based, human; for BAG4 protein level change: key: (+) for increase; (−) for decrease; N.C.: (N.C) for no change; (~) for not detected; for CAD17 protein level change: key: (+) for increase; (−) for decrease; N.C.: (N.C) for no change; (~) for not detected; for CBFB protein level change: key: (+) for increase; (−) for decrease; N.C.: (N.C) for no change; (~) for not detected; for Claudin 1 protein level change: key: (+) for increase; (−) for decrease; N.C.: (N.C) for no change; (~) for not detected
Description: as §1

H1975 xenografts = test: H1975 xenograft study (Example 2)
H23 = test: Dose-dependent change in panel protein levels by western blot; conditions: 16 h
Description: as §1

[3] = dose-dependent, 16 h, western blot

Compound: COc1cc2ncnc(Nc3ccc(F)c(Cl)c3)c2cc1OCCCN1CCOCC1 [gefitinib]
- BAG4 protein level change (H1650): N.C.
- CAD17 protein level change (H1650): +
- CBFB protein level change (H1650): +
- Claudin 1 protein level change (H1650): +
- ELAVL-1 protein level change (H1650): +
- EpCAM protein level change (H1650): +
- HSPG2 protein level change (H1650): +
- PDCD4 protein level change (H1650): +
- PRDX6 protein level change (H1650): +
- QARS protein level change (H1650): +
- S100A9 protein level change (H1650): N.C.
- SERPINE1 protein level change (H1650): +
- SNX5 protein level change (H1650): N.C.
- TESTICAN2 protein level change (H1650): N.C.
- TNFAIP2 protein level change (H1650): +
- TROP-2 protein level change (H1650): +
- BAG4 protein level change (H1975): N.C.
- CAD17 protein level change (H1975): N.C.
- CBFB protein level change (H1975): N.C.
- Claudin 1 protein level change (H1975): N.C.
- ELAVL-1 protein level change (H1975): N.C.
- EpCAM protein level change (H1975): N.C.
- HSPG2 protein level change (H1975): N.C.
- PDCD4 protein level change (H1975): N.C.
- PRDX6 protein level change (H1975): N.C.
- S100A9 protein level change (H1975): N.C.
- SERPINE1 protein level change (H1975): N.C.
- SNX5 protein level change (H1975): N.C.
- TESTICAN2 protein level change (H1975): N.C.
- TNFAIP2 protein level change (H1975): N.C.
- TROP-2 protein level change (H1975): N.C.
- tumor growth rates (A431-ZDR tumors): No differences in tumor growth rates
- tumor growth (A431 xenografts [1]; 50 mg/kg daily oral, vs vehicle Day 7 P=0.0102, Day 11 P=0.002, Day 15 P=0.0001): marked arrest in tumor growth
- mean serum PRDX6 levels (A431 xenografts [1]; between Day 0 and Day 15, change vs vehicle P<0.0001): decreased
- tumor PRDX6 (tumor lysates) (A431 xenografts [1]; day 15, vs vehicle, P=0.2185): no statistically significant difference
- difference in mean change from baseline in serum PRDX6 normalized to tumor volume (A431 xenografts [1]; vs vehicle, P=0.0027): statistically significant
- tumor size and growth (A431 xenografts [2]; 50 mg/kg gefitinib vs untreated): significantly smaller than those in untreated mice and grew at a slower rate
- panel proteins whose in vivo change was concordant with in vitro experiments (A431 xenografts [2]; A431 tumor lysates, immunoblot): 12 of the 16
- VAMP3, KLF5, and GLTSCR2 level (A431; 100 nM): marginal increase
- level of all other verified proteins (A431; 100, 500, and 1,000 nM, 16 hrs, western blot): dose-dependent increase
- ELAVL-1 response at higher doses (A431; 500 and 1,000 nM vs 100 nM, 16 hrs, western blot): not amplified at higher doses
- BAG4 protein level change (A431; [3]): +
- CAD17 protein level change (A431; [3]): +
- CBFB protein level change (A431; [3]): +
- Claudin 1 protein level change (A431; [3]): +
- ELAVL-1 protein level change (A431; [3]): +
- EpCAM protein level change (A431; [3]): +
- HSPG2 protein level change (A431; [3]): +
- PDCD4 protein level change (A431; [3]): +
- PRDX6 protein level change (A431; [3]): +
- QARS protein level change (A431; [3]): +
- S100A9 protein level change (A431; [3]): +
- SERPINE1 protein level change (A431; [3]): +
- SNX5 protein level change (A431; [3]): −
- TESTICAN2 protein level change (A431; [3]): +
- TNFAIP2 protein level change (A431; [3]): +
- TROP-2 protein level change (A431; [3]): +
- tumor response (tumor volumes) (H1975 xenografts; 50 mg/kg daily oral, vs vehicle): no response
- mean serum PRDX6 levels (H1975 xenografts; after treatment): increased
- PRDX6 levels with respect to treatment (H1975 xenografts; models carrying Iressa-resistant NSCLC xenografts): did not change
- difference in mean change from baseline in serum PRDX6 (H1975 xenografts; vs vehicle, Day 4 (P=0.461), Day 10-14 (P=0.3404)): not statistically significant
- difference in mean change from baseline in serum PRDX6 normalized to tumor volume (H1975 xenografts; vs vehicle, Day 4 (P=0.7922), Day 10-14 (P=0.8849)): not significant
- BAG4 protein level change (H23): +
- CAD17 protein level change (H23): +
- CBFB protein level change (H23): N.C.
- Claudin 1 protein level change (H23): N.C.
- ELAVL-1 protein level change (H23): N.C.
- EpCAM protein level change (H23): N.C.
- HSPG2 protein level change (H23): N.C.
- PDCD4 protein level change (H23): N.C.
- PRDX6 protein level change (H23): N.C.
- QARS protein level change (H23): N.C.
- S100A9 protein level change (H23): N.C.
- SERPINE1 protein level change (H23): N.C.
- SNX5 protein level change (H23): N.C.
- TNFAIP2 protein level change (H23): +
- TROP-2 protein level change (H23): N.C.
